US20120269739A1, “COMPOSITION, USE, AND PRESERVATION METHOD” (L'OREAL, priority 2009, published 2012)

Tests used:
[1] = system: bacteria and yeast; test: Action kinetics, overall conclusion; assay type: cell-based; conditions: gingerone 2%; in particular on the bacteria
Description: (§1) The object of this example is to distinguish a compound according to the invention (gingerone) from the preserving agents conventionally used for protecting cosmetic formulations against microbial contamination, as regards the action kinetics.
(§2) The inoculated samples are then placed in an incubator-agitator at 35° C.±2° C. Samples are taken after 6 hours, 24 hours, 48 hours, 72 hours and 7 days. Decimal dilutions are then prepared in Eugon LT100 broth. These dilutions are left for 30 minutes±15 minutes at 25° C. in order to neutralize the preserving agents, and are then double-seeded on the surface of Petri dishes containing Eugon LT100 agar.

[2] = system: collection microbial strains (bacteria, yeasts and moulds); test: Challenge Test, overall finding over strains and formulas; assay type: cell-based; conditions: three formulas, five strains, gingerone 2%
[3] = system: Enterococcus faecalis (ATCC 33186); test: Action kinetics in broth; assay type: cell-based; conditions: TS broth pH 5.2±0.3, 35° C., gingerone 2%, sodium benzoate 3.3%, chlorhexidine digluconate 2.2%
Description: as §1
(§3) The solutions are prepared in Trypto-casein-soya (TS) broth for the bacteria and in Sabouraud broth for the yeast. These solutions are adjusted to pH 5.2±0.3.
(§4) For each microbial solution, a growth control consisting of the appropriate culture medium alone is prepared.
(§5) The solutions in TS broth (36 ml) are inoculated separately with each of the bacteria (4 ml of microbial suspension) to a final content of 10^6 cfu/ml of mixture.
as §2
(§6) The Petri dishes are then incubated in an oven at 35° C.±2° C. for a variable time depending on the strain concerned: • 48 hours; S. aureus; • 5 days: E. faecalis and C. albicans.
(§7) The results are expressed for each solution, each strain and each contact time as the number of cfu/ml of stock solution.

[4] = system: Staphylococcus aureus (ATCC 6538); test: Action kinetics in broth; assay type: cell-based; conditions: TS broth pH 5.2±0.3, 35° C., gingerone 2%, sodium benzoate 3.3%, chlorhexidine digluconate 2.2%
Description: as §1, §3, §4, §5, §2, §6, §7

[5] = system: Escherichia coli (Ec) ATCC 8739; test: Challenge Test (artificial contamination) of cosmetic formula; assay type: cell-based; conditions: 22° C., chlorhexidine digluconate 0.3%, gingerone 2%
Source text: (§8) 5 pure microorganism cultures are used.

[6] = system: Aspergillus niger (An) ATCC 6275; test: as above; assay type: cell-based; conditions: 22° C., chlorhexidine digluconate 0.3%, gingerone 2%
Source text: as §8

[7] = system: Candida albicans (Ca) ATCC 10231; test: as above; assay type: cell-based; conditions: 22° C., chlorhexidine digluconate 0.3%, gingerone 2%; for Log reduction number after 7 days of contact, relative to the control, Candida albicans: Amt weight %: sodium benzoate 0.6%
Source text: as §8

[8] = system: Enterococcus faecalis (Ef) ATCC 33186; test: as above; assay type: cell-based; conditions: 22° C., chlorhexidine digluconate 0.3%, gingerone 2%
Source text: as §8

[9] = system: Candida albicans (ATCC 10231); test: Action kinetics in broth; assay type: cell-based; conditions: Sabouraud broth pH 5.2±0.3, 35° C., gingerone 2%, sodium benzoate 3.3%, chlorhexidine digluconate 2.2%
Description: as §1, §3, §4
The solutions in Sabouraud broth (36 ml) are inoculated with the yeast (4 ml of suspension) to a final content of 10^6 cfu/ml.
as §2, §6, §7

[10] = system: Pseudomonas aeruginosa (Pa) ATCC 19429; test: Challenge Test (artificial contamination) of cosmetic formula; conditions: 22° C., chlorhexidine digluconate 0.3%, gingerone 2%
Description: The antimicrobial efficacy of a compound of formula (I) was evaluated via the Challenge Test or artificial contamination method.
The method of the challenge test consists of an artificial contamination of the sample with collection microbial strains (bacteria, yeasts and moulds) and evaluation of the number of revivable microorganisms seven days after the inoculation.
The gram-negative bacteria (Escherichia coli and Pseudomonas aeruginosa), gram-positive bacteria (Enterococcus faecalis), yeast (Candida albicans) and mould (Aspergillus niger) are seeded in the subculturing medium, respectively, the day before the inoculation for the bacteria and the yeast, and five days before the inoculation for the mould.
After homogenizing the microbial suspension, 0.2 ml of inoculum is introduced into each pill bottle (the suspensions are used pure: between 1×10^8 and 3×10^8 cfu per ml) and the microbial suspension in the 20 g of product (=cosmetic formula) is homogenized thoroughly using a spatula.
The content of microorganisms present in the product corresponds after homogenization to a concentration of 10^6 microorganisms per gram of product, i.e. inoculation to 1% of an inoculum containing 10^8 microorganisms per ml.
After 7 days of contact time between the microorganisms and the product at 22° C.±2° C. and in darkness, decimal dilutions are performed and the number of revivable microorganisms remaining in the product is counted.

[11] = 1st formula O/W emulsion, Amt weight %: phenoxyethanol 1%, sodium benzoate 0.6%
[12] = 2nd formula lotion (pH 7 ± 0.2), Amt weight %: sodium benzoate 0.6%, phenoxyethanol 1%
[13] = 3rd formula O/W emulsion, Amt weight %: sodium benzoate 0.6%

## COc1cc(CCC(C)=O)ccc1O [Gingerone, gingerone]
[1]
  action kinetics in comparison with conventional preserving agents: much more slowly
[2]
  antimicrobial efficacy across strains and formulatory supports: efficient irrespective of the strain and of the support
[3]; contact time 0 hours
  Number of cfu counted after strain/solution contact time, Enterococcus faecalis: 2.5 × 10^6 cfu/ml
[3]; contact time 6 hours
  Number of cfu counted after strain/solution contact time, Enterococcus faecalis: 4.4 × 10^5 cfu/ml
[3]; contact time 24 hours
  Number of cfu counted after strain/solution contact time, Enterococcus faecalis: 1.2 × 10^4 cfu/ml
[3]; contact time 48 hours
  Number of cfu counted after strain/solution contact time, Enterococcus faecalis: 6.3 × 10^2 cfu/ml
[3]; contact time 72 hours
  Number of cfu counted after strain/solution contact time, Enterococcus faecalis: 80 cfu/ml
[3]; contact time 168 hours
  Number of cfu counted after strain/solution contact time, Enterococcus faecalis: <10 cfu/ml
[4]; contact time 0 hours, first series
  Number of cfu counted after strain/solution contact time, Staphylococcus aureus: 1.7 × 10^6 cfu/ml
[4]; contact time 0 hours, second series of Table 1
  Number of cfu counted after strain/solution contact time, Staphylococcus aureus: 2.5 × 10^6 cfu/ml
[4]; contact time 6 hours, first series
  Number of cfu counted after strain/solution contact time, Staphylococcus aureus: 1.2 × 10^6 cfu/ml
[4]; contact time 6 hours, second series of Table 1
  Number of cfu counted after strain/solution contact time, Staphylococcus aureus: 1.2 × 10^6 cfu/ml
[4]; contact time 24 hours, first series
  Number of cfu counted after strain/solution contact time, Staphylococcus aureus: 1.7 × 10^5 cfu/ml
[4]; contact time 24 hours, second series of Table 1
  Number of cfu counted after strain/solution contact time, Staphylococcus aureus: 1.6 × 10^5 cfu/ml
[4]; contact time 48 hours, first series
  Number of cfu counted after strain/solution contact time, Staphylococcus aureus: 8.1 × 10^3 cfu/ml
[4]; contact time 48 hours, second series of Table 1
  Number of cfu counted after strain/solution contact time, Staphylococcus aureus: 9.6 × 10^3 cfu/ml
[4]; contact time 72 hours, first series
  Number of cfu counted after strain/solution contact time, Staphylococcus aureus: 40 cfu/ml
[4]; contact time 72 hours, second series of Table 1
  Number of cfu counted after strain/solution contact time, Staphylococcus aureus: 1.3 × 10^2 cfu/ml
[4]; contact time 168 hours, first series
  Number of cfu counted after strain/solution contact time, Staphylococcus aureus: <100 cfu/ml
[4]; contact time 168 hours, second series of Table 1
  Number of cfu counted after strain/solution contact time, Staphylococcus aureus: <10 cfu/ml
[5]; [11]
  Log reduction number after 7 days of contact, relative to the control, E. coli: >4 Log
[5]; [12]
  Log reduction number after 7 days of contact, relative to the control, E. coli: >4 Log
[5]; [13]
  Log reduction number after 7 days of contact, relative to the control, E. coli: >4 Log
[6]; [11]
  Log reduction number after 7 days of contact, relative to the control, A. niger: >4 Log
[6]; [12]
  Log reduction number after 7 days of contact, relative to the control, A. niger: >4 Log
[6]; [13]
  Log reduction number after 7 days of contact, relative to the control, A. niger: 0.6 Log
[7]; [11]
  Log reduction number after 7 days of contact, relative to the control, C. albicans: >4 Log
[7]; 2nd formula lotion (pH 7 ± 0.2), phenoxyethanol 1%
  Log reduction number after 7 days of contact, relative to the control, Candida albicans: >3 Log
[7]; 3rd formula O/W emulsion
  Log reduction number after 7 days of contact, relative to the control, Candida albicans: >4 Log
[8]; [11]
  Log reduction number after 7 days of contact, relative to the control, E. faecalis: >4 Log
[8]; [12]
  Log reduction number after 7 days of contact, relative to the control, E. faecalis: >0.5 Log
[8]; [13]
  Log reduction number after 7 days of contact, relative to the control, E. faecalis: >4 Log
[9]; contact time 0 hours
  Number of cfu counted after strain/solution contact time, Candida albicans: 2.9 × 10^6 cfu/ml
[9]; contact time 6 hours
  Number of cfu counted after strain/solution contact time, Candida albicans: 2.9 × 10^2 cfu/ml
[9]; contact time 24 hours
  Number of cfu counted after strain/solution contact time, Candida albicans: <10 cfu/ml
[9]; contact time 48 hours
  Number of cfu counted after strain/solution contact time, Candida albicans: <10 cfu/ml
[9]; contact time 72 hours
  Number of cfu counted after strain/solution contact time, Candida albicans: <10 cfu/ml
[9]; contact time 168 hours
  Number of cfu counted after strain/solution contact time, Candida albicans: <10 cfu/ml
[10]; [11]
  Log reduction number after 7 days of contact, relative to the control, P. aeruginosa: >4 Log
[10]; [12]
  Log reduction number after 7 days of contact, relative to the control, P. aeruginosa: >3 Log
[10]; [13]
  Log reduction number after 7 days of contact, relative to the control, P. aeruginosa: >4 Log
